Article PMC5267519, “Evaluation of a Novel Renewable Hepatic Cell Model for Prediction of Clinical CYP3A4 Induction Using a Correlation-Based Relative Induction Score Approach” (Drug Metabolism and Disposition, 2017)
Where “and” joins values, the source holds several entries; their conditions need not be identical. Equal values may be shown once. Read-outs that look alike come from different tables or passages of the source.

Experiments:
CYP3A4 [1] = conditions: for RIS Based on Enzyme Activity: RIS = (Emax × Cmax,ub)/(EC50 + Cmax,ub)
CYP3A4 [2] = conditions: cited from earlier work
CYP3A4 [3] = test system: CYP3A4
Text: The resulting fitting equation was used to calculate predicted in vivo AUC change for each compound. […] Prediction accuracy using HepatoCells was also compared with prediction accuracy using primary human hepatocytes.

CYP2B6 [4] = experiment: CYP2B6 induction response to prototypical inducer, enzyme activity, primary human hepatocytes; conditions: cryopreserved primary human hepatocytes, probe bupropion 250 µM
human CAR [5] = target: T1, human CAR (Homo sapiens, UniProt Q14994); experiment: Ad-EYFP-hCAR nuclear translocation in primary human hepatocytes; type: cell-based; conditions: phenobarbital treatment
T1 construct: expressed in transfected cells; host or cells: primary human hepatocytes (Corning Gentest inventory), adenoviral transduction
T1 sequence (Q14994 1-352): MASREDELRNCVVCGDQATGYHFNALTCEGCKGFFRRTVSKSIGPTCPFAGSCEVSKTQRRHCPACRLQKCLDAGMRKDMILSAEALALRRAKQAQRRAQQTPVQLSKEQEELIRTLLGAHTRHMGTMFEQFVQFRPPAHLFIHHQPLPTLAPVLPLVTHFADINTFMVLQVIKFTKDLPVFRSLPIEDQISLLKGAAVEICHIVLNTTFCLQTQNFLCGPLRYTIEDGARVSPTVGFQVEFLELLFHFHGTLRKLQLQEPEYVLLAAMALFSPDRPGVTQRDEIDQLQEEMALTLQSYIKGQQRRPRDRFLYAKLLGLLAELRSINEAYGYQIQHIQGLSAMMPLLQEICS

CYP2B6 [6] = experiment: CYP2B6 induction response to prototypical inducer, enzyme activity, HepatoCells; conditions: human, probe bupropion 250 µM
Procedure: (§1) Cryopreserved HepatoCells were thawed quickly in a 37°C water bath and transferred to Corning Culture Medium for HepatoCells supplemented with 10% fetal bovine serum and Pen/Strep (plating medium). After the cryo-freezing media was removed by centrifugation at 150g for 10 minutes, the cell pellet was resuspended in plating media and cell count was performed with trypan blue. Cells were then seeded in a Corning BioCoat Collagen I–coated plate (500,000 cells/well in 24-well plate or 80,000 cells/well in 96-well plate), and plates were incubated in a 37°C incubator with 5% CO2. […] Cells were then returned to the incubator for overnight culture.

human CAR [7] = target: T1, human CAR; experiment: Ad-EYFP-hCAR nuclear translocation in HepatoCells; type: cell-based; conditions: 1 mM phenobarbital for 12 hours
Procedure: Previous studies have used adenoviral-enhanced yellow fluorescent protein-tagged-human CAR (Ad-EYFP-hCAR) as a tool to visualize nuclear translocation of hCAR from cytoplasm in primary human hepatocytes upon exposure to phenobarbital ([Li et al., 2009]). […] The same Ad-EYFP-hCAR fusion protein model system was used to study CAR nuclear translocation in HepatoCells. A 3-day culture of HepatoCells was transduced with Ad-EYFP-hCAR for 24 hours. Infected HepatoCells were then treated with 1 mM phenobarbital for 12 hours.

CYP3A4 mRNA [8] = conditions: human
Procedure: as §1
(§2) Stock solutions of test compounds were prepared by dissolving each compound in DMSO and serially diluting the solutions in DMSO. Final working solutions were freshly prepared daily by diluting the 1000× stock solutions in culture medium. Three lots of HepatoCells culture were treated with eight concentrations of test compounds. Both enzymatic activity (testosterone 6β hydroxylase activity) and mRNA expression were measured as endpoints using LC-MS/MS and real-time reverse-transcription polymerase chain reaction, respectively.
(§3) Only curve fitting with correlation coefficient (R^2) > 0.85 is accepted. At high concentrations for some compounds, if toxicity or insolubility becomes obvious, such data are excluded from curve fitting.

CYP3A4 mRNA [9] = experiment: in vitro; conditions: human
Procedure: as §1, §2, §3

CYP3A4 [10] = test system: CYP3A4; design: method as in Luo et al. (2002); conditions: probenecid concentration up to 20 μM; ref Luo et al. (2002); cited from earlier work
CYP3A4 mRNA [11] = experiment: Concentration-dependent CYP3A4 mRNA induction in HepatoCells; conditions: for induction response: readout not specified; for Emax / EC50: CYP3A4 mRNA fold increase, NI = no induction observed at tested concentration; for Emax: 3 consecutive days treatment, quinidine: only observed maximum fold induction; for RIS Based on mRNA: RIS = (Emax × Cmax,ub)/(EC50 + Cmax,ub); for EC50: human, nominal concentrations
Procedure: as §1, §2, §3

PXR = test system: PXR; design: method as in Luo et al. (2002); conditions: probenecid concentration up to 50 μM; ref Luo et al. (2002); cited from earlier work
[12] = design: method as in Zhang et al., 2014; conditions: from the literature; ref Zhang et al., 2014; cited from earlier work
[13] = Lot 2B HepatoCells, RIS calibration curve
[14] = Lot 3A HepatoCells, RIS calibration curve
[15] = Lot 3B HepatoCells, RIS calibration curve

CCC1(c2ccccc2)C(=O)NC(=O)NC1=O [Phenobarbital]
RIS Based on Enzyme Activity, Mean (CYP3A4 [1]; human): 3.7
Observed % AUC Change (CYP3A4 [2]; human, in vivo): 61%
Predicted % AUC Change Based on Activity (CYP3A4 [3]): 96% and 98%
Predicted % AUC Change Based on mRNA (CYP3A4 [3]): 98% and 95%
Predicted AUC change using HepatoCells (range of lots) (CYP3A4 [3]): 95–98%
fold induction at 72 h, 1 mM (CYP2B6 [4]): 7.8
EYFP-hCAR localisation after treatment (human CAR [5]): relocates to the cell nuclei
fold induction at 72 h, 1 mM (CYP2B6 [6]): 5
EYFP-hCAR localisation after treatment (human CAR [7]): relocates to the cell nuclei
RIS Based on mRNA, Mean (CYP3A4 mRNA [8]): 4.3
EC50 (CYP3A4 mRNA [9]): 775 µM

CCCN(CCC)S(=O)(=O)c1ccc(C(=O)O)cc1 [Probenecid]
induction of CYP3A4 transcript or enzyme activity (CYP3A4 [10]): no activation of PXR or induction of CYP3A4 transcript or enzyme activity
Emax, mRNA expression (all lots) (CYP3A4 mRNA [11]; HepatoCells): more than 20 fold
induction response (CYP3A4 mRNA [11]; HepatoCells, probenecid at 0.1–11 μM, significant = >twofold): did not exhibit significant induction response
induction response (CYP3A4 mRNA [11]; HepatoCells, probenecid concentration higher than 33 μM): strong induction
Emax (CYP3A4 mRNA [11]; Lot 2B HepatoCells): 25 Fold
RIS Based on mRNA (CYP3A4 mRNA [11]; Lot 2B): 2.8
Emax (CYP3A4 mRNA [11]; Lot 3A HepatoCells): 26 Fold
RIS Based on mRNA (CYP3A4 mRNA [11]; Lot 3A): 3.2
Emax (CYP3A4 mRNA [11]; Lot 3B HepatoCells): 22 Fold
RIS Based on mRNA (CYP3A4 mRNA [11]; Lot 3B): 2.4
EC50 (CYP3A4 mRNA [11]; EC50, Lot 2B HepatoCells): 187 µM
EC50 (CYP3A4 mRNA [11]; EC50, Lot 3A HepatoCells): 176 µM
EC50 (CYP3A4 mRNA [11]; EC50, Lot 3B HepatoCells): 195 µM
RIS Based on mRNA, Mean (CYP3A4 mRNA [11]; mean of lots 2B, 3A, 3B): 2.8
Emax, enzyme activity (all lots) (CYP3A4 [1]; HepatoCells): 5.9- to 11.9 fold
RIS Based on Enzyme Activity (CYP3A4 [1]; Lot 2B): 1.5
RIS Based on Enzyme Activity (CYP3A4 [1]; Lot 3A): 1.0
RIS Based on Enzyme Activity (CYP3A4 [1]; Lot 3B): 0.8
RIS Based on Enzyme Activity, Mean (CYP3A4 [1]; mean of lots 2B, 3A, 3B): 1.1
Observed % AUC Change (CYP3A4 [2]; clinical DDI, decrease in AUC of victim drug (midazolam or nonmidazolam), ref Zhang et al., 2014): 20%
activation of PXR (PXR): no activation of PXR
Predicted % AUC Change Based on Activity (CYP3A4 [3]; [13]): 96%
Predicted % AUC Change Based on mRNA (CYP3A4 [3]; [13]): 98%
Predicted % AUC Change Based on Activity (CYP3A4 [3]; [14]): 94%
Predicted % AUC Change Based on mRNA (CYP3A4 [3]; [14]): 98%
Predicted % AUC Change Based on Activity (CYP3A4 [3]; [15]): 83%
Predicted % AUC Change Based on mRNA (CYP3A4 [3]; [15]): 95%
unbound Cmax [12]: 28 µM
